Calls of active or inactive are those of the source. No cut-off for these calls is given here.
Legend:
[1] = biological target: T1, Acetylcholinesterase (Mus musculus) (UniProt P21836); assay: Inhibition of AchE in albino LACA mouse brain at 10^-3 M using acetylthiocholine iodide as substrate incubated for 10 mins measured for 2 mins by Ellman's method relative to control
T1 sequence (whole entry): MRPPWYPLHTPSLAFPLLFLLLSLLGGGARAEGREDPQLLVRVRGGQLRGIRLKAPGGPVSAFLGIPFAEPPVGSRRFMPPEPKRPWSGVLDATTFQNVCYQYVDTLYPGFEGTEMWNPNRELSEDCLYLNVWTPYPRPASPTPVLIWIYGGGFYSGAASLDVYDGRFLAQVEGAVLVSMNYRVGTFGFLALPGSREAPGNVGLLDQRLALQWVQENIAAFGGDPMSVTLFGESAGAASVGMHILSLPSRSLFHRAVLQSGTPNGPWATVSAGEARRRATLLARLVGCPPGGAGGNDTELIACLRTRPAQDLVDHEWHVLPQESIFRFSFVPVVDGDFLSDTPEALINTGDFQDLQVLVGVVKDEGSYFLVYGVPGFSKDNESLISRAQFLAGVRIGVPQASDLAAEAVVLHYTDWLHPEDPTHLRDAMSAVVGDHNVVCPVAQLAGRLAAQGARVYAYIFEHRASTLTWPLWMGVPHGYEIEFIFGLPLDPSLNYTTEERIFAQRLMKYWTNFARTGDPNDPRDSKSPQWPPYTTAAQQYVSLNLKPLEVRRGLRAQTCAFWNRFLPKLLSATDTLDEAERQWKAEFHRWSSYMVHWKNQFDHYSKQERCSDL

Mus musculus [2] = assay: Cognition enhancing effect in albino mouse assessed as reversal of scopolamine-induced memory deficit by measuring basal latency time at 0.5 mg/kg, ip treated 5 mins post scopolamine challenge by step down passive avoidance test (reference value: 63.93 +/- 2.6 sec); format: functional
[3] = biological target: T1, Acetylcholinesterase (Mus musculus); conditions: Brain, at 5 µM
[4] = biological target: T1, Acetylcholinesterase (Mus musculus); conditions: Brain, at 1 µM
Mus musculus [5] = assay: Cognition enhancing effect in albino mouse assessed as reversal of scopolamine-induced memory deficit by measuring reduction in number of mistake at 0.5 mg/kg, ip treated 5 mins post scopolamine challenge by step down passive avoidance test; format: functional, organism-based
[6] = biological target: T1, Acetylcholinesterase (Mus musculus); conditions: Brain, at 10 µM
Mus musculus [7] = assay: Cognition enhancing effect in albino mouse assessed as reversal of scopolamine-induced memory deficit by measuring latency time at 0.5 mg/kg, ip treated 5 mins post scopolamine challenge by step down passive avoidance test (reference value: 68.16 +/- 0.4 sec); format: functional
[8] = biological target: T1, Acetylcholinesterase (Mus musculus); conditions: Brain, at 50 µM
Acetylcholinesterase = biological target: T2, Acetylcholinesterase (Mus musculus, UniProt P21836); parameters: species or system LACA
T2 sequence (P21836 whole entry): T1 sequence (whole entry)

[9] = biological target: T1, Acetylcholinesterase (Mus musculus); conditions: Brain, at 25 µM

SMILES: COc1cc2c(cc1OC)C(=O)C(CC1CCN(CC(=O)Nc3ccc(F)cc3)CC1)C2 (stereo not given)
- inhibition [1]: 6.19%

SMILES: COc1ccc(NC(=O)CN2CCC(CC3Cc4cc(OC)c(OC)cc4C3=O)CC2)cc1OC (stereo not given)
- inhibition [1]: 7.33%

SMILES: O=C(Oc1cccc(/C=C2\Cc3ccccc3C2=O)c1)c1cc(C(F)(F)F)cc(C(F)(F)F)c1
- Time (Mus musculus [2]): 12.63 s
- inhibition [3]: 46.8%
- inhibition [4]: 38.7%
- Activity (Mus musculus [5]): Active
- inhibition [6]: 53.2%
- Time (Mus musculus [7]): 6.98 s
- inhibition [8]: 67.7%
- IC50 (Acetylcholinesterase): 12 µM
- inhibition [9]: 59.7%

SMILES: O=C(Oc1cccc(/C=C2\Cc3ccccc3C2=O)c1)c1ccccc1
- Time (Mus musculus [2]): 16.01 s
- inhibition [3]: 27.4%
- inhibition [4]: 30.6%
- Activity (Mus musculus [5]): Active
- inhibition [6]: 37.1%
- Time (Mus musculus [7]): 10.01 s
- inhibition [8]: 67.7%
- IC50 (Acetylcholinesterase): 34.3 µM
- inhibition [9]: 48.4%

SMILES: COc1ccc(NC(=O)CN2CCC(CC3Cc4cc(OC)c(OC)cc4C3=O)CC2)cc1 (stereo not given)
- inhibition [1]: 12.8%

SMILES: COc1cc2c(cc1OC)C(=O)C(CC1CCN(CC(=O)Nc3ccc(Cl)cc3)CC1)C2 (stereo not given)
- inhibition [1]: 2.74%

SMILES: COc1cc2c(cc1OC)C(=O)C(CC1CCN(CC(=O)Cc3nc4cc(OC)c(OC)cc4s3)CC1)C2 (stereo not given)
- inhibition [1]: 3.2%

SMILES: COc1cc2c(cc1OC)C(=O)C(CC1CCN(CC(=O)Cc3nc4ccccc4s3)CC1)C2 (stereo not given)
- inhibition [1]: 4.62%

SMILES: O=C(Oc1cccc(/C=C2\Cc3ccccc3C2=O)c1)c1ccccc1F
- Time (Mus musculus [2]): 13.72 s
- inhibition [3]: 48.8%
- inhibition [4]: 80.4%
- Activity (Mus musculus [5]): Active
- inhibition [6]: 40.5%
- Time (Mus musculus [7]): 5.9 s
- inhibition [8]: 32.9%
- IC50 (Acetylcholinesterase): 14.1 µM
- inhibition [9]: 35.2%

SMILES: COc1cc2c(cc1OC)C(=O)C(CC1CCN(Cc3ccccc3)CC1)C2 (stereo not given) [DONEPEZIL]
- Time (Mus musculus [2]): 17.67 s
- Activity (Mus musculus [5]): Active
- Time (Mus musculus [7]): 11.52 s

SMILES: O=C(Oc1cccc(/C=C2\Cc3ccccc3C2=O)c1)c1cc(Cl)cc(Cl)c1
- Time (Mus musculus [2]): 19.86 s
- inhibition [3]: 41.9%
- inhibition [4]: 37%
- Activity (Mus musculus [5]): Active
- inhibition [6]: 33.9%
- Time (Mus musculus [7]): 12.65 s
- inhibition [8]: 51.6%
- IC50 (Acetylcholinesterase): 43.3 µM
- inhibition [9]: 43.5%

SMILES: COc1cc2c(cc1OC)C(=O)C(CC1CCN(CC(=O)Cc3nc4ccc([N+](=O)[O-])cc4s3)CC1)C2 (stereo not given)
- inhibition [1]: 5.9%

SMILES: COc1cc2c(cc1OC)C(=O)C(CC1CCN(CC(=O)Cc3nc4ccc(C)cc4s3)CC1)C2 (stereo not given)
- inhibition [1]: 5.82%

SMILES: COc1cc2c(cc1OC)C(=O)C(CC1CCN(CC(=O)Cc3nc4ccc(Cl)cc4s3)CC1)C2 (stereo not given)
- inhibition [1]: 2.13%

SMILES: COc1ccc2nc(CC(=O)CN3CCC(CC4Cc5cc(OC)c(OC)cc5C4=O)CC3)sc2c1 (stereo not given)
- inhibition [1]: 3.72%

SMILES: COc1cc2c(cc1OC)C(=O)C(CC1CCN(CC(=O)Cc3nc4ccc(F)cc4s3)CC1)C2 (stereo not given)
- inhibition [1]: 1.24%

SMILES: COc1cc(C(=O)Oc2cccc(/C=C3\Cc4ccccc4C3=O)c2)cc(OC)c1OC
- Time (Mus musculus [2]): 13.81 s
- inhibition [3]: 32.2%
- inhibition [4]: 69.1%
- Activity (Mus musculus [5]): Active
- inhibition [6]: 72.1%
- Time (Mus musculus [7]): 6.08 s
- inhibition [8]: 32.9%
- IC50 (Acetylcholinesterase): 14.1 µM
- inhibition [9]: 78.9%

SMILES: O=C(Oc1cccc(/C=C2\Cc3ccccc3C2=O)c1)c1cccc(CCl)c1
- Time (Mus musculus [2]): 20.86 s
- inhibition [3]: 70.6%
- inhibition [4]: 75.9%
- Activity (Mus musculus [5]): Active
- inhibition [6]: 56.3%
- Time (Mus musculus [7]): 11.65 s
- inhibition [8]: 59.3%
- IC50 (Acetylcholinesterase): 27.1 µM
- inhibition [9]: 72.9%

SMILES: O=C(Oc1cccc(/C=C2\Cc3ccccc3C2=O)c1)c1ccc(F)cc1
- Time (Mus musculus [2]): 22.06 s
- inhibition [3]: 35.5%
- inhibition [4]: 33.9%
- Activity (Mus musculus [5]): Active
- inhibition [6]: 38.7%
- Time (Mus musculus [7]): 9.9 s
- inhibition [8]: 54.8%
- IC50 (Acetylcholinesterase): 40.6 µM
- inhibition [9]: 51.6%

SMILES: COc1cc2c(cc1OC)C(=O)C(CC1CCN(CC(=O)Nc3ccc(C)cc3)CC1)C2 (stereo not given)
- inhibition [1]: 13.9%

SMILES: COc1cc2c(cc1OC)C(=O)C(CC1CCN(CC(=O)Nc3ccc([N+](=O)[O-])cc3)CC1)C2 (stereo not given)
- inhibition [1]: 8.67%

SMILES: O=C(Oc1cccc(/C=C2\Cc3ccccc3C2=O)c1)c1ccc([N+](=O)[O-])cc1
- Time (Mus musculus [2]): 14.23 s
- inhibition [3]: 68.3%
- inhibition [4]: 72.1%
- Activity (Mus musculus [5]): Active
- inhibition [6]: 65.3%
- Time (Mus musculus [7]): 7.98 s
- inhibition [8]: 51%
- IC50 (Acetylcholinesterase): 48.8 µM
- inhibition [9]: 60.8%

SMILES: O=C(Oc1cccc(/C=C2\Cc3ccccc3C2=O)c1)c1cccc(OC(F)(F)F)c1
- Time (Mus musculus [2]): 27.67 s
- inhibition [3]: 72.1%
- inhibition [4]: 73.6%
- Activity (Mus musculus [5]): Active
- inhibition [6]: 64.6%
- Time (Mus musculus [7]): 12.01 s
- inhibition [8]: 78.2%
- IC50 (Acetylcholinesterase): 12.3 µM
- inhibition [9]: 91.7%

SMILES: O=C(Oc1cccc(/C=C2\Cc3ccccc3C2=O)c1)c1ccc(CCl)cc1
- Time (Mus musculus [2]): 14.82 s
- inhibition [3]: 66.1%
- inhibition [4]: 67.6%
- Activity (Mus musculus [5]): Active
- inhibition [6]: 65.3%
- Time (Mus musculus [7]): 8.11 s
- inhibition [8]: 53.3%
- IC50 (Acetylcholinesterase): 79.7 µM
- inhibition [9]: 56.3%

SMILES: COc1ccc(C(=O)Oc2cccc(/C=C3\Cc4ccccc4C3=O)c2)cc1
- Time (Mus musculus [2]): 14.82 s
- inhibition [3]: 32.2%
- inhibition [4]: 30.6%
- Activity (Mus musculus [5]): Active
- inhibition [6]: 33.9%
- Time (Mus musculus [7]): 7.11 s
- inhibition [8]: 48.4%
- IC50 (Acetylcholinesterase): 38.9 µM
- inhibition [9]: 41.9%
